The text below walks through data of US11246898B2 (priority 2017, dated 2022).

Data set [1] in a line: in vitro. Conditions: African green monkey.
Data set [2] relates to Ebola virus/Zaire. The data set can be described thus: microbe, parasite or virus in culture. Type of data set: cell-based. As to conditions: Zaire ebolavirus.
The test system of data set [3] is CellTiter96 (MTS) cells.
Data set [4] deals with Ebola virus/Zaire. Type of data set: cell-based.

Read-outs that look alike come from different tables or passages of the source.

`NC(=O)c1nc(F)c[nH]c1=O` [Favipiravir] displayed a CC50 in data set [1] of more than 1000 µM. The compound also had an EC50 in data set [2] of 96 µM.

Take Allophycocyanin: in data set [3], the CC50 is more than 400 µg/mL. In data set [4], this compound registered an EC50 of 1.77 µg/mL and an EC90 of more than 400 µg/mL.

Broadly, the EC50 is the concentration that produces a half-maximal response. For orientation: EC90 means the concentration needed for an effect of 90%.
